Results published in article PMC3242765, “Inhibitors of Alphavirus Entry and Replication Identified with a Stable Chikungunya Replicon Cell Line and Virus-Based Assays” (PLoS ONE, 2011).
Structures can show the parent of a compound that is named as a salt.

Tests used:
CHIKV replicon = assay: microbe, parasite or virus in culture; type: cell-based, Chikungunya virus (CHIKV)

Compound | CHIKV replicon % left (CHIKV replicon) [%] | SFV replication % left (surviving fraction, remaining percentage of SFV replication) (SFV-Rluc) [%]
CCC1(c2ccccc2)C(=O)NCNC1=O [Primidone] | 41.6 | 127.1
CCN(CC)CCNC(=O)c1ccc(N)cc1 [Procainamide hydrochloride] | 100.4 | 89.0
CCN(CC)CCOC(=O)c1ccc(N)cc1 [Procaine hydrochloride] | 84.3 | 105.4
CN1CCN(CCCN2c3ccccc3Sc3ccc(Cl)cc32)CC1 [Prochlorperazine] | 71.9 | 51.4
Oc1cc(O)c2c(c1)O[C@H](c1ccc(O)c(O)c1)[C@H](O)[C@H]2c1c(O)cc(O)c2c1O[C@H](c1ccc(O)c(O)c1)[C@@H](O)C2 [Procyanidin B1] | 104.7 | 128.1
Oc1cc(O)c2c(c1)O[C@H](c1ccc(O)c(O)c1)[C@H](O)[C@H]2c1c(O)cc(O)c2c1O[C@H](c1ccc(O)c(O)c1)[C@H](O)C2 [Procyanidin B2] | 101.9 | 93.7
CC(CN1c2ccccc2Sc2ccccc21)N(C)C (stereo not shown) [Promethazine hydrochloride] | 39.2 | 48.8
CC(C)NCC(O)c1ccc2ccccc2c1 (stereo not shown) [Pronethalol] | 29.9 | 62.9
CC(C)[N+](C)(CCOC(=O)C1c2ccccc2Oc2ccccc21)C(C)C [Propantheline bromide] | 104.2 | 77.0
CC(C)NCC(O)COc1cccc2ccccc12 (stereo not shown) [Propranolol hydrochloride] | 105.4 | 74.0
Cc1c(C(C)C)c(=O)n(-c2ccccc2)n1C [Propyphenazone] | 81.1 | 50.9
CN(C)CCCN1c2ccccc2Sc2cccnc21.Cl [Prothipendyl hydrochloride] | 11.2 | 7.4
CC(Cc1ccc2c(c1)OCO2)NCC(O)c1ccc(O)c(O)c1 (stereo not shown) [Protokylol hydrochloride] | 85.4 | 128.4
Cc1ncc(CO)c(CO)c1O [Pyridoxine hydrochloride] | 71.1 | 100.9
COc1ccc(CN(CCN(C)C)c2ccccn2)cc1 [Pyrilamine maleate] | 85.4 | 73.7
O=c1c(O)c(-c2ccc(O)c(O)c2)oc2cc(O)c(O)c(O)c12 [Quercetagetin] | 85.2 | 90.2
COc1cc(O)c2c(=O)c(OC)c(-c3ccc(OC)c(OC)c3)oc2c1 [Quercetin-3,7,3',4'-tetramethylether] | 58.2 | 65.0
O=c1c(O)c(-c2ccc(O)c(O)c2)oc2cc(O)cc(O)c12 [Quercetin] | 110.2 | 125.8
C[C@@H]1O[C@@H](Oc2c(-c3ccc(O)c(O)c3)oc3cc(O)cc(O)c3c2=O)[C@H](O)[C@H](O)[C@H]1O.O.O [Quercitrin dihydrate] | 45.2 | 11.4

Compound | CHIKV replicon % left (CHIKV replicon) [%] | SFV replication % left (surviving fraction, remaining percentage of SFV replication) (SFV-Rluc) [%]
Oc1cccc(O)c1 [Resorcin] | 72.2 | 83.0
Oc1cccc(O)c1 [Resorcinol] | 102.9 | 67.1
Oc1ccc(/C=C/c2cc(O)cc(O)c2)cc1 [Resveratrol] | 79.8 | 103.4
COc1cc(O)c2c(=O)c(O)c(-c3ccc(O)c(O)c3)oc2c1 [Rhamnetin] | 94.7 | 119.1
Cc1cc2nc3c(=O)[nH]c(=O)nc-3n(C[C@H](O)[C@H](O)[C@H](O)CO)c2cc1C [Riboflavin] | 63.1 | 43.1
O=C(/C=C/c1ccc(O)c(O)c1)O[C@H](Cc1ccc(O)c(O)c1)C(=O)O [Rosmarinic acid] | 98.8 | 120.3
C[C@@H]1O[C@@H](OC[C@H]2O[C@@H](Oc3c(-c4ccc(O)c(O)c4)oc4cc(O)cc(O)c4c3=O)[C@H](O)[C@@H](O)[C@@H]2O)[C@H](O)[C@H](O)[C@H]1O [Rutin] | 49.5 | 44.1
CC(C)(C)NCC(O)c1ccc(O)c(CO)c1 (stereo not shown) [Salbutamol] | 78.4 | 151.4
NC(=O)c1ccccc1O [Salicylamide] | 38.2 | 126.2
O=C(O)c1ccccc1O [Salicylic acid] | 78.2 | 69.1
O=C(Oc1ccccc1C(=O)O)c1ccccc1O [Salicylsalicylic acid] | 88.9 | 127.4
CC1=C2[C@H]3OC(=O)[C@@H](C)[C@@H]3CC[C@@]2(C)C=CC1=O [Santonin] | 101.9 | 99.9
COc1cc2ccc(=O)oc2cc1O [Scopoletin] | 95.4 | 81.9
C#CCN(C)[C@H](C)Cc1ccccc1 [Selegiline hydrochloride] | 43.1 | 57.0
COc1cc(/C=C/C(=O)O)cc(OC)c1O [Sinapic acid] | 51.4 | 22.0
C=CC/C(=N/OS(=O)(=O)[O-])S[C@@H]1O[C@H](CO)[C@@H](O)[C@H](O)[C@H]1O.O.[K+] [Sinigrin monohydrate] | 99.2 | 47.6
CC(C)NCC(O)c1ccc(NS(C)(=O)=O)cc1 (stereo not shown) [Sotalol hydrochloride] | 80.1 | 100.5
CC(=O)NS(=O)(=O)c1ccc(N)cc1 [Sulfacetamide] | 50.4 | 100.8
Nc1ccc(S(=O)(=O)Nc2ncccn2)cc1 [Sulfadiazine] | 81.2 | 107.7

Compound | CHIKV replicon % left (CHIKV replicon) [%] | SFV replication % left (surviving fraction, remaining percentage of SFV replication) (SFV-Rluc) [%]
COc1cc(NS(=O)(=O)c2ccc(N)cc2)nc(OC)n1 [Sulfadimethoxine] | 39.1 | 102.4
CCc1nnc(NS(=O)(=O)c2ccc(N)cc2)s1 [Sulfaethidole] | 100.4 | 106.4
[H]/N=C(/N)NS(=O)(=O)c1ccc(N)cc1 [Sulfaguanidine] | 62.1 | 63.5
Cc1ccnc(NS(=O)(=O)c2ccc(N)cc2)n1 [Sulfamerazine] | 91.1 | 83.8
COc1cnc(NS(=O)(=O)c2ccc(N)cc2)nc1 [Sulfameter] | 79.2 | 99.0
Cc1cc(C)nc(NS(=O)(=O)c2ccc(N)cc2)n1 [Sulfamethazine] | 100.5 | 91.7
Cc1nnc(NS(=O)(=O)c2ccc(N)cc2)s1 [Sulfamethizole] | 79.1 | 100.4
Cc1cc(NS(=O)(=O)c2ccc(N)cc2)no1 [Sulfamethoxazole] | 100.5 | 77.5
COc1ccc(NS(=O)(=O)c2ccc(N)cc2)nn1 [Sulfamethoxypyridazine] | 82.0 | 110.0
Cc1nnc(NS(=O)(=O)c2ccc(N)cc2)s1 [Sulfamethylthiadiazole] | 92.1 | 89.6
Cc1nc(NS(=O)(=O)c2ccc(N)cc2)oc1C [Sulfamoxole] | 80.2 | 83.0
Nc1ccc(S(N)(=O)=O)cc1 [Sulfanilamide] | 100.5 | 64.2
NC(=O)NS(=O)(=O)c1ccc(N)cc1.O [Sulfaninyl urea hydrate] | 92.8 | 120.2
Cc1cnc(NS(=O)(=O)c2ccc(N)cc2)nc1 [Sulfaperine] | 100.8 | 127.8
Nc1ccc(S(=O)(=O)Nc2ccccn2)cc1 [Sulfapyridine] | 79.9 | 95.0
Nc1ccc(S(=O)(=O)Nc2nccs2)cc1 [Sulfathiazole] | 78.5 | 138.1
Cc1noc(NS(=O)(=O)c2ccc(N)cc2)c1C [Sulfisoxazole] | 104.5 | 91.4
CCS(=O)(=O)C(C)(C)S(=O)(=O)CC [Sulfonmethane] | 102.7 | 86.6
